Laboratory results: US10111874B2, “Combination therapies for treatment of cancer” (Araxes Pharma LLC, priority 2014, dated 2018)

What follows are compounds tested against T1, KRAS G12C 1-169, his-tagged protein, GDP-loaded (Homo sapiens, UniProt P01116, G12C) (assay: Biochemical assay: covalent binding to KRAS G12C analyzed by mass spectrometry). Conditions: compounds 1-47, measured at 24 h.
T1 construct: KRAS G12C 1-169, his-tagged protein, GDP-loaded
Note: test concentration or dose not given here.

T1 sequence (P01116 1-169 isoform P01116-2 G12C): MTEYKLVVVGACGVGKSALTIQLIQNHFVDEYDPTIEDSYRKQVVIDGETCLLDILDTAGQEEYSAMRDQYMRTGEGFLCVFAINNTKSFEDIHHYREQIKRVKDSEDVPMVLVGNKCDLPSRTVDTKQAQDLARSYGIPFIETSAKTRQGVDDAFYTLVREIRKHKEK

SMILES	Binding %
C=CC(=O)N1CCN(c2c(C#N)cnc3cc(Cl)c(-c4ccc(Cl)cc4)cc23)CC1 [Compound I-42, 4-(4-acryloylpiperazin-1-yl)-7-chloro-6-(4-chlorophenyl)quinoline-3-carbonitrile]	+++ (+++indicates binding activity greater than 50% and up to 75%)
C=CC(=O)N1CCN(c2nc(OC)nc3cc(Cl)c(-c4ccc(Cl)cc4)cc23)CC1 [Compound I-43, 1-(4-(7-chloro-6-(4-chlorophenyl)-2-methoxyquinazolin-4-yl)piperazin-1-yl)prop-2-en-1-one]	+++ (+++indicates binding activity greater than 50% and up to 75%)
C=CC(=O)N1CCN(c2ncnc3cc(Cl)c(-c4ccc(Cl)cc4)cc23)CC1C(N)=O (stereo not shown) [Compound I-44, 1-acryloyl-4-(7-chloro-6-(4-chlorophenyl)quinazolin-4-yl)piperazin-2-carboxamide]	+++ (+++indicates binding activity greater than 50% and up to 75%)
C=CS(=O)(=O)N1CCN(c2ncnc3cc(Cl)c(-c4ccc(Cl)cc4)cc23)CC1 [Compound I-45, 7-chloro-6-(4-chlorophenyl)-4-(4-(vinylsulfonyl)piperazin-1-yl)quinazoline]	+ (+indicates binding activity from 5% to 25%)
C=CC(=O)N1CCN(c2ncnc3cc(Cl)c(-c4ccc(Cl)cc4)cc23)CC1CO (stereo not shown) [Compound I-46, 1-(4-(7-chloro-6-(4-chlorophenyl)quinazolin-4-yl)-2-(hydroxymethyl)piperazin-1-yl)prop-2-en-1-one]	++++ (++++indicates binding activity greater than 75%)
C=CC(=O)N1CCN(c2ncnc3cc(Cl)c(-c4ccc(Cl)cc4)cc23)CC1C#N (stereo not shown) [Compound I-47, 1-acryloyl-4-(7-chloro-6-(4-chlorophenyl)quinazolin-4-yl)piperazine-2-carbonitrile]	++++ (++++indicates binding activity greater than 75%)

Same assay, conditions: compounds 48-246, measured at 2 h

SMILES	Binding %
C=CC(=O)N1CCN(c2ncnc3cc(Cl)ccc23)CC1C#N (stereo not shown) [Compound I-48, 1-acryloyl-4-(7-chloroquinazolin-4-yl)piperazine-2-carbonitrile]	++++ (++++indicates binding activity greater than 75%)
C=CC(=O)N1CCN(c2ncnc3cc(Cl)c(Br)cc23)CC1C#N (stereo not shown) [Compound I-49, 1-acryloyl-4-(6-bromo-7-chloroquinazolin-4-yl)piperazine-2-carbonitrile]	++++ (++++indicates binding activity greater than 75%)
C=CC(=O)N1CCN(c2ncnc3cc(Cl)c(-c4cccs4)cc23)CC1C#N (stereo not shown) [Compound I-51, 1-acryoyl-4-(7-chloro-6-(thiophen-2-yl)quinazaolin-4-yl)piperazine-2-carbonitrile]	++++ (++++indicates binding activity greater than 75%)
C=CC(=O)N1CCN(c2ncnc3cc(Cl)c(-c4ccccc4)cc23)CC1C#N (stereo not shown) [Compound I-52, 1-acryloyl-4-(7-chloro-6-phenylquinazolin-4-yl)piperazine-2-carbonitrile]	++++ (++++indicates binding activity greater than 75%)
C=CC(=O)N1CCN(c2ncnc3cc(Cl)c(C#N)cc23)CC1C#N (stereo not shown) [Compound I-53, 4-(4-acryloyl-3-cyanopiperazin-1-yl)-7-chloroquinazoline-6-carbonitrile]	++++ (++++indicates binding activity greater than 75%)
C=CC(=O)N1CCN(c2ncnc3cc(Cl)c(-c4ccc(Cl)cc4)cc23)C[C@H]1C(N)=O [Compound I-54, (S)-1-acryloyl-4-(7-chloro-6-(4-chlorophenyl)quinazolin-4-yl)piperazine-2-carboxamide]	++ (++indicates binding activity greater than 25% and up to 50%)
C=CC(=O)N1CCN(c2ncnc3cc(Cl)c(C4CC4)cc23)CC1C#N (stereo not shown) [Compound I-55, 1-acryloyl-4-(7-chloro-6-cyclopropylquinazolin-4-yl)piperazine-2-carbonitrile]	++++ (++++indicates binding activity greater than 75%)
C=CC(=O)N1CCN(c2nc(C)nc3cc(Cl)c(-c4ccc(Cl)cc4)cc23)CC1C#N (stereo not shown) [Compound I-56, 1-acryloyl-4-(7-chloro-6-(4-chlorophenyl)-2-methylquinazolin-4-yl)piperazine-2-carbonitrile]	++++ (++++indicates binding activity greater than 75%)
C=CC(=O)N1CCN(c2ncnc3ccccc23)CC1C#N (stereo not shown) [Compound I-57, 1-acryloyl-4-(quinazolin-4-yl)piperazine-2-carbontrile]	+ (+indicates binding activity from 5% to 25%)
C=CC(=O)N1CCN(c2ncnc3cc(Cl)c(-c4ccc(Cl)cc4)cc23)C[C@@H]1C#N [Compound I-58, (R)-1-acryloyl-4-(7-chloro-6-(4-chlorophenyl)quinazolin-4-yl)piperazine-2-carbonitrile]	+++ (+++indicates binding activity greater than 50% and up to 75%)
C=CC(=O)N1CCN(c2ncnc3cc(Cl)c(-c4ccc(Cl)cc4)cc23)C[C@H]1C#N [Compound I-59, (S)-1-acryloyl-4-(7-chloro-6-(4-chlorophenyl)quinazolin-4-yl)piperazine-2-carbonitrile]	++++ (++++indicates binding activity greater than 75%)
C=CC(=O)N1CCN(c2ncnc3cc(Cl)c(-c4ccc(Cl)cc4)cc23)CC1CN(C)C (stereo not shown) [Compound I-60, 1-(4-(7-chloro-6-(4-chlorophenyl)quinazolin-4-yl)-2-((dimethylamino)methyl)piperazin-1-yl)prop-2-en-1-one]	+ (+indicates binding activity from 5% to 25%)
C=CC(=O)N1CCN(c2nccc3cc(Cl)ccc23)CC1C#N (stereo not shown) [Compound I-61, 1-acryloyl-4-(6-chloroisoquinolin-1-yl)piperazine-2-carbonitrile]	+ (+indicates binding activity from 5% to 25%)
C=CC(=O)N1CCN(c2ncnc3cc(Cl)c(-c4ccc(Cl)cc4)cc23)CC1CCO (stereo not shown) [Compound I-62, 1-(4-(7-chloro-6-(4-chlorophenyl)quinazolin-4-yl)-2-(2-hydroxyethyl)piperazin-1-yl)prop-2-en-1-one]	+ (+indicates binding activity from 5% to 25%)
C=CC(=O)N1CCN(c2ncnc3cc(Cl)c(-c4ccc(Cl)cc4)cc23)C[C@H]1CO [Compound I-63, (S)-1-(4-(7-chloro-6-(4-chlorophenyl)quinazolin-4-yl)-2-(hydroxymethyl)piperazin-1-yl)prop-2-en-1-one]	+ (+indicates binding activity from 5% to 25%)
C=CC(=O)N1CCN(c2ncnc3cc(Cl)c(-c4ccc(Cl)cc4)cc23)C[C@@H]1C(N)=O [Compound I-64, (R)-1-acryloyl-4-(7-chloro-6-(4-chlorophenyl)quinazolin-4-yl)piperazine-2-carboxamide]	++ (++indicates binding activity greater than 25% and up to 50%)
C=CC(=O)N1CCN(c2ncnc3cc(Cl)c(-c4ccc(Cl)cc4)cc23)C[C@@H]1CO [Compound I-65, (R)-1-(4-(7-chloro-6-(4-chlorophenyl)quinazolin-4-yl)-2-(hydroxymethyl)piperazin-1-yl)prop-2-en-1-one]	+ (+indicates binding activity from 5% to 25%)
CN(C)C/C=C/C(=O)N1CCN(c2ncnc3cc(Cl)c(-c4ccc(Cl)cc4)cc23)CC1C#N (stereo not shown) [Compound I-66, (E)-4-(7-Chloro-6-(4-chlorophenyl)quinazolin-4-yl)-1-(4-(dimethylamino)but-2-enoyl)piperazine-2-carbonitrile]	++++ (++++indicates binding activity greater than 75%)
C=CC(=O)N1CCN(c2ncnc3cc(-c4ccccc4)c(Cl)cc23)CC1 [Compound I-67, 1-(4-(6-chloro-7-phenylquinazolin-4-yl)piperazin-1-yl)prop-2-en-1-one]	+++ (+++indicates binding activity greater than 50% and up to 75%)
C=CC(=O)N1CCN(c2ncnc3cc(C4CC4)c(Cl)cc23)CC1 [Compound I-68, 1-(4-(6-chloro-7-cyclopropylquinazolin-4-yl)piperazin-1-yl)prop-2-en-1-one]	+ (+indicates binding activity from 5% to 25%)
C=CC(=O)N1CCN(c2ncnc3cc(Cl)c(-c4ccc(Cl)cc4)cc23)CC1CC(N)=O (stereo not shown) [Compound I-69, 2-(1-acryloyl-4-(7-chloro-6-(4-chlorophenyl)quinazolin-4-yl)piperazin-2-yl)acetamide]	+ (+indicates binding activity from 5% to 25%)
C=CC(=O)N1CCN(c2ncnc3cc(Cl)c(-c4ccc(Cl)cc4)cc23)CC1CC#N (stereo not shown) [Compound I-70, 2-(1-acryloyl-4-(7-chloro-6-(4-chlorophenyl)quinazolin-4-yl)piperazin-2-yl)acetonitrile]	+++ (+++indicates binding activity greater than 50% and up to 75%)
C=CC(=O)N1CCN(c2ncnc3ccc(-c4ccc(Cl)cc4)cc23)CC1 [Compound I-71, 1-(4-(6-(4-chlorophenyl)quinazolin-4-yl)piperazin-1-yl)prop-2-en-1-one]	+ (+indicates binding activity from 5% to 25%)
C=CC(=O)N1CCN(c2ncnc3cc(-c4ccccc4Cl)c(Cl)cc23)CC1 [Compound I-72, 1-(4-(6-chloro-7-(2-chlorophenyl)quinazolin-4-yl)piperazin-1-yl)prop-2-en-1-one]	++ (++indicates binding activity greater than 25% and up to 50%)
C=CC(=O)N1CCN(c2ncnc3cc(-c4cccc(Cl)c4)c(Cl)cc23)CC1 [Compound I-73, 1-(4-(6-chloro-7-(3-chlorophenyl)quinazolin-4-yl)piperazin-1-yl)prop-2-en-1-one]	++ (++indicates binding activity greater than 25% and up to 50%)
C=CC(=O)N1CCN(c2ncnc3cc(-c4cccc(O)c4)c(Cl)cc23)CC1 [Compound I-75, 1-(4-(6-chloro-7-(3-hydroxyphenyl)quinazolin-4-yl)piperazin-1-yl)prop-2-en-1-one]	+ (+indicates binding activity from 5% to 25%)
C=CC(=O)N1CCN(c2ncnc3cc(Oc4ccccc4)c(Cl)cc23)CC1 [Compound I-76, 1-(4-(6-chloro-7-phenoxyquinazolin-4-yl)piperazin-1-yl)prop-2-en-1-one]	+ (+indicates binding activity from 5% to 25%)
C=CC(=O)N1CCN(c2ncnc3cc(-c4ccccc4CC)c(Cl)cc23)CC1 [Compound I-77, 1-(4-(6-chloro-7-(2-ethylphenyl)quinazolin-4-yl)piperazin-1-yl)prop-2-en-1-one]	+++ (+++indicates binding activity greater than 50% and up to 75%)
